# From article PMC13081163, “Discovery of a novel Nrf2 activator that modulates mitochondrial function in neurons by regulating DHRS3-Nrf2 interaction after ischemic stroke” (Theranostics, 2026)
# What was measured:
# [1] = tested on: SH-SY5Y cells and primary cortical neuron cells; assay: Mitochondrial function in the OGD/R model (JC-1, Calcein-AM, DCFH-DA, ATP); type: cell-based
# Description: Experiment two: mitochondrial ATP levels were assayed using ATP assay kit (S0027, Beyotime, China) according to the manufacturer's protocols. The cells were cultured by placing them in six-well plates as described in the "Cell culture and drug administration in vitro" method. Subsequently, 200 uL of lysate was added into the hole and supernatants were collected (4 °C, 12000 g, 5 min). 100 uL supernatants cultured with 100 µL probe of ATP, and the RLU was measured by a luminometer.
# Assay of ROS generation production: cellular ROS were examined using an ROS Assay Kit (S0033S, Beyotime, China). Cells were incubated with DCFH-DA for 20 min at 37 °C in the dark, and then washed three times with PBS. The fluorescence intensity was measured by Laser Scanning Confocal Microscope (CLSM; ZEISS LSM 800, Germany).
# Mitochondrial membrane potential (MMP) and MPTP assessment: MMP changes were measured by a mitochondrial membrane potential assay kit with JC-1 (C2003S, Beyotime, China) according to the manufacturer's instructions. Higher ratios of red to green fluorescence were correlated with higher mitochondrial membrane polarization. In addition, MPTP opening was assessed by Calcein-AM assays (Y237214-1mg, Beyotime, China). […] For detailed instructions, please refer to the manual.
# [2] = molecular target: Human recombinant Keap1 proteins (Homo sapiens, UniProt Q14145); assay: SPR binding to full-length Keap1; set-up: purchased Sinobiological ME18DE0203; conditions: read-out: KD, full-length Keap1 protein
# Description: The binding affinity of Cpd.51 or Oma to Keap1 proteins were measured using a Biacore T200. The overall experimental procedures were based on previous reports, [28]. Human recombinant Keap1 proteins or truncated form of Keap1 (residues 48-180 and residues 48-149) were captured on a CM5 chip by a standard amine coupling procedure. Binding sensorgrams were recorded by injecting various concentrations of Cpd.51 over the immobilized proteins surface. The dissociation constant was obtained by globally fitting the data (to the 1:1 Langmuir binding model using the Biacore Insight evaluation software (Cytiva, Marlborough, MA, USA). Affinity tests for Cpd.51 and DHRS3 were also performed using the aforementioned method.
# [3] = In vitro hepatic microsomal stability, overall statement; type: in vitro ADME, human, dog, rat
# Description: (§1) The liver microsomal incubation system comprised human, dog, or rat liver microsomal protein (0.75 mg/mL), nicotinamide adenine dinucleotide phosphate (NADPH) generation system, potassium phosphate buffer (0.1 M, pH 7.4), substrate, and inhibitor. The assay was conducted by first preparing a potassium phosphate buffer. Compounds and liver microsomes were then diluted and pre-incubated at 37 °C before initiating the reaction with NADPH. Aliquots were quenched with acetonitrile containing internal standard at specified time points. After sample processing (shaking and centrifugation), the supernatants were analyzed by LC-MS/MS to determine metabolic stability.
# DHRS3-Nrf2 complex = molecular target: T1, DHRS3-Nrf2 complex (Homo sapiens, UniProt O75911); assay: Co-IP of Nrf2-DHRS3 interaction in SH-SY5Y cells; type: cell-based; conditions: 100 nM, physiological and OGD/R conditions
# T1 construct: endogenous in cells; host or cells: SH-SY5Y
# T1 sequence (O75911 1-302): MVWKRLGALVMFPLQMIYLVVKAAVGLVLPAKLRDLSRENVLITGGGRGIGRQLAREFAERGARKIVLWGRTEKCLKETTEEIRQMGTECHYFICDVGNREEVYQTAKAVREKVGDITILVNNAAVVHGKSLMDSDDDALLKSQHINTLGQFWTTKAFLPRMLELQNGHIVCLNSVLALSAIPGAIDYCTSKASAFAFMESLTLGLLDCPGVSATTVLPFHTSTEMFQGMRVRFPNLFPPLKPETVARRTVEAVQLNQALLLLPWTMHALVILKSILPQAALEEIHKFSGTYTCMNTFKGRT
# Description: Co-IP experiments were performed as described. After SH-SY5Y cells were treated, lysates were collected and incubated with antibodies with rotation for 12 h at 4 °C. Then, they were incubated with protein A/G magnetic beads (88804, Thermo Scientific, USA) as specification. Subsequently, the beads were collected and immune complexes were isolated. Finally, protein complexes were incubated for 5 min at 95 °C after dissolving in the electrophoresis sample buffer, and subjected to western blotting.
# tMCAO rats = assay: Long-term recovery after tMCAO (survival, body weight, behaviour); type: in vivo, rat; conditions: 5 mg/kg tail vein injection for 7 d
# Description: To assess the degree of neurological impairment, we conducted modified Neurological Severity Score (mNSS) according to previous experience. The investigator was blinded to the grouping situation during the whole experiment.
# On postoperative day 3 two wooden boards of identical size were joined at a 30° angle, with a narrow gap retained at the junction. The rat was positioned facing the apex of the angle. When it advanced into the deeper part of the angle, bilateral whisker contact with the boards triggered a characteristic rearing response, followed by a turn to face the opposite direction. Each rat underwent 15 trials, and the number of right turns was recorded. The higher the right-turn ratio, the more severe the injury.
# Rats were placed on a horizontal, stainless steel wire grid. The grid was then smoothly rotated 180 degrees to an inverted position and held stationary at a height of 0.8 m. A stopwatch was started immediately upon inversion to measure the latency to fall. The test was terminated if the animal remained on the grid for 60 s, at which point it was gently returned to its home cage, and a score of 60 s was recorded.
# The Y-maze apparatus consisted of three symmetrically arranged enclosed arms (typically labeled Arms A, B, and C), each positioned 120° apart. At the start of each trial, the subject was placed in Arm A and allowed to move freely through the maze for 8 min. Spatial working memory was evaluated by calculating the spontaneous alternation rate, using the following formula:
# Following a 2 h acclimation period, the rats were within an open field cubic box (100 × 100 × 40 cm^3) and allowed 5 min of unrestricted movement. The travel distance and the time spent in the central area were recorded.
# The spatial learning and memory of rats were assessed using the Morris water maze (MWM) from post-operative days 23 to 26. Over four consecutive days, animals underwent training trials in which they were required to locate a submerged escape platform within 60 s. Each rat was gently placed into the water facing the pool wall. If the rat found the platform and remained on it for 10 s, the escape latency was recorded. If the platform was not found within 60 s, the rat was guided onto it and allowed to stay for 10 s, and the latency was recorded as 60 s. Following the training phase, the platform was removed, and a visual spatial memory test lasting for 60 s was conducted to assess the retention of memory. The number of platform-location crossings and the time spent in the target quadrant were recorded and analyzed.
# [4] = Microsomal metabolic stability, rat; type: in vitro ADME; conditions: rat liver microsomes
# Description: as §1
# Human recombinant Keap1 proteins, sequence (Q14145 whole entry, the tested form may be a part): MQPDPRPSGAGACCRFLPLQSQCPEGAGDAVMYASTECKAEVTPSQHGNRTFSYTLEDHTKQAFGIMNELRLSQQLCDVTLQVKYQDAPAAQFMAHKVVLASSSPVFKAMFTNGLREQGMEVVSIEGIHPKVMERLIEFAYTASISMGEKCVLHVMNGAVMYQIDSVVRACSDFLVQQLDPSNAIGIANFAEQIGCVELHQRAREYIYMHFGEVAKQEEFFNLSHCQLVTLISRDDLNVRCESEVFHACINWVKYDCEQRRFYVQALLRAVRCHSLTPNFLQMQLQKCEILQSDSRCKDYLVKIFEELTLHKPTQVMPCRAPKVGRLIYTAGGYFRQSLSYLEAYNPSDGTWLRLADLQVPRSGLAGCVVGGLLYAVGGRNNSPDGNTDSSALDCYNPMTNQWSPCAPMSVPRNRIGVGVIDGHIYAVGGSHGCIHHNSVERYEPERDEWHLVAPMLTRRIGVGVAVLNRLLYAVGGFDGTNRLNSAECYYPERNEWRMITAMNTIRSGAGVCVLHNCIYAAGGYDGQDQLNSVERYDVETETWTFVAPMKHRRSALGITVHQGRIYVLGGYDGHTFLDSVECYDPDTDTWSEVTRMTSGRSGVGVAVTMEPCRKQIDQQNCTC
smiles,measurement,setting,value
CC1(C)CCC2(C(=O)NO)CCC3(C)C(C(=O)C=C4C5(C)C=C(C#N)C(=O)C(C)(C)C5CCC43C)C2C1 (centres unmarked) [Cpd.51],mitochondrial membrane potential (JC-1),[1],enhanced mitochondrial membrane potential
same,"mitochondrial permeability (MPTP, Calcein AM)",[1],reduced mitochondrial permeability
same,ATP production,[1]; SH-SY5Y cells,increased ATP production
same,reactive oxygen species production (DCFH-DA),[1]; SH-SY5Y cells,decreased reactive oxygen species production
same,Kd,[2],53.9 µM
same,metabolic stability in microsomes,[3],moderate metabolic stability
same,DHRS3-Nrf2 complex formation (Co-IP),DHRS3-Nrf2 complex,substantially reduced DHRS3-Nrf2 complex formation
same,"Morris water maze, spatial learning and memory",tMCAO rats,only a modest capacity to improve these cognitive functions
same,"body weight and mNSS scores, long-term",tMCAO rats,significantly improved body weight and mNSS scores
same,mortality after tMCAO,tMCAO rats,reduced mortality
same,"corner, inverted screen, Y maze and open field tests",tMCAO rats; vs model group,"exhibited improvements in neurological deficits, motor abilities, and spatial working and reference memory"
same,"Remainig (%, t = 60 min)",[4],51.1%
same,CLint scaled,"[4]; rat, pH 7.4",41 mL/min/kg
same,half-life,"[4]; rat, pH 7.4",60.8 min
